This note sets out measurements from patent US12686690B2, “Macrocyclic urea orexin receptor agonists” (Merck Sharp & Dohme LLC, priority 2020, dated 2026).

The target of the test is T1, hOX2R (Homo sapiens, UniProt O43614).
T1 construct: expressed in transfected cells; host or cells: CHO cells (G418 selection)
T1 sequence (O43614 1-444): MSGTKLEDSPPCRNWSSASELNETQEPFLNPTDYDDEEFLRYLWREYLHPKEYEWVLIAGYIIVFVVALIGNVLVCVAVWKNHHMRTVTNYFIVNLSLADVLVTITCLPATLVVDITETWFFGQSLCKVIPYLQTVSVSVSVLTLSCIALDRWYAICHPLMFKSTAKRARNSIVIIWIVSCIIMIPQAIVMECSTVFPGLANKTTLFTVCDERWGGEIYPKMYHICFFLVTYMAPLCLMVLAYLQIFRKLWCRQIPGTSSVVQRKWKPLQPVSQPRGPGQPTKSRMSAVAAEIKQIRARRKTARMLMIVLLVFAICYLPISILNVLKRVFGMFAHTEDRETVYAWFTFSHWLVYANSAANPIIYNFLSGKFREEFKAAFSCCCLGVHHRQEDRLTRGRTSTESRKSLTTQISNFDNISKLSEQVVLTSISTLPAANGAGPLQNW
The experiment in a line: hOX2R IPone assay (orexin receptor agonism). The test is classed as cell-based. Conditions: IPone readout; for hOX2R_Ipone max %act: maximal activation; for EC50: orexin receptor agonist, read-out: hOX2R_IPone EC50.

One may read the EC50 as the concentration needed to bring the measured effect to its halfway point. As to `CCN1C(=O)N[C@H](C(F)(F)F)CCCCCOc2nc(cn3ccnc23)-c2cc(ncc2OC)[C@H]1C` [Example 115, (12R,16S)-13-ethyl-8-methoxy-12-methyl-16-(trifluoromethyl)-12,13,16,17,18,19,20,21-octahydro-6,23-(azeno)-11,7-(metheno)imidazo[2,1-c][1,4,10,13,15]oxatetraazacyclohenicosin-14(15H)-one], the hOX2R_Ipone max %act was determined as 97.2% and the concentration for a half-maximal effect (EC50) was determined as 868 nM.

For `CCN1C(=O)N[C@@H](CCC(F)(F)F)CCCCCOc2nc(cn3ccnc23)-c2cc(nnc2OC)[C@H]1C` [Example 116, (12R,16R)-13-ethyl-8-methoxy-12-methyl-16-(3,3,3-trifluoropropyl)-12,13,16,17,18,19,20,21-octahydro-6,23-(azeno)-11,7-(metheno)imidazo[2,1-c][1,4,9,10,13,15]oxapentaazacyclohenicosin-14(15H)-one], the hOX2R_Ipone max %act is on record as 99.7% and the half-maximal effective concentration (EC50) was found to be 1.6 nM.

Regarding `CCN1C(=O)N[C@@H](CCC(F)(F)F)CCCCCOc2nc(cn3ccnc23)-c2nc(ncc2OC)[C@@H]1C` [Example 117A, (12S,16R)-13-ethyl-8-methoxy-12-methyl-16-(3,3,3-trifluoropropyl)-12,13,16,17,18,19,20,21-octahydro-6,23:11,7-di(azeno)imidazo[2,1-c][1,4,10,13,15]oxatetraazacyclohenicosin-14(15H)-one], the hOX2R_Ipone max %act stood at 101.7% and the EC50 was 26 nM.

`CCN1C(=O)N[C@@H](CCC(F)(F)F)CCCCCOc2nc(cn3ccnc23)-c2nc(ncc2OC)[C@H]1C` [Example 117B, (12R,16R)-13-ethyl-8-methoxy-12-methyl-16-(3,3,3-trifluoropropyl)-12,13,16,17,18,19,20,21-octahydro-6,23:11,7-di(azeno)imidazo[2,1-c][1,4,10,13,15]oxatetraazacyclohenicosin-14(15H)-one]: the hOX2R_Ipone max %act came to 101.9% and the EC50 worked out at 1.5 nM.

Take `CCN1C(=O)N[C@@H](CCC(F)(F)F)CCCCCOc2nc(cn3ccnc23)-c2cc(cc(C)n2)[C@@H]1C` [Example 118A, (12S,16R)-13-ethyl-9,12-dimethyl-16-(3,3,3-trifluoropropyl)-12,13,16,17,18,19,20,21-octahydro-6,23-(azeno)-11,7-(metheno)imidazo[2,1-c][1,4,8,13,15]oxatetraazacyclohenicosin-14(15H)-one]: the hOX2R_Ipone max %act turned out to be 99.08% and the EC50 turned out to be 183 nM.

For `CCN1C(=O)N[C@@H](CCC(F)(F)F)CCCCCOc2nc(cn3ccnc23)-c2cc(cc(C)n2)[C@H]1C` [Example 118B, (12R,16R)-13-ethyl-9,12-dimethyl-16-(3,3,3-trifluoropropyl)-12,13,16,17,18,19,20,21-octahydro-6,23-(azeno)-11,7-(metheno)imidazo[2,1-c][1,4,8,13,15]oxatetraazacyclohenicosin-14(15H)-one], the hOX2R_Ipone max %act amounted to 99.7% and the EC50 stood at 2.6 nM.

Take `CCN1C(=O)N[C@@H](CCC(F)(F)F)CCCCCOc2nc(cn3ccnc23)-c2cc(nc(C)n2)[C@@H]1C` [Example 119A, (12S,16R)-13-ethyl-9,12-dimethyl-16-(3,3,3-trifluoropropyl)-12,13,16,17,18,19,20,21-octahydro-6,23-(azeno)-11,7-(metheno)imidazo[2,1-c][1,4,8,10,13,15]oxapentaazacyclohenicosin-14(15H)-one]: the hOX2R_Ipone max %act came to 100.1% and the EC50 was determined as 166 nM.

With `CCN1C(=O)N[C@@H](CCC(F)(F)F)CCCCCOc2nc(cn3ccnc23)-c2cc(nc(C)n2)[C@H]1C` [Example 119B, (12R,16R)-13-ethyl-9,12-dimethyl-16-(3,3,3-trifluoropropyl)-12,13,16,17,18,19,20,21-octahydro-6,23-(azeno)-11,7-(metheno)imidazo[2,1-c][1,4,8,10,13,15]oxapentaazacyclohenicosin-14(15H)-one], the hOX2R_Ipone max %act is 99.9% and the EC50 stood at 4.6 nM.
